Results on 2 compounds are retold here after ChEMBL document CHEMBL3832024, “DailyMed|setid=d9db2fd3-a668-4d37-9082-18f6ceb8c3cb | CLARITHROMYCIN - clarithromycin tablet, film coated, extended release|Dispensing Solutions, Inc”.

Usually Tmax stands for the time at which the peak concentration occurs. A word on the half-life: it is how long it takes for the measured level to halve.

What all share (format): ADME, organism-based
Data set [1] concerns Homo sapiens. Kind of data set: Evaluation of pharmacokinetic parameters for 14 OH-Clarithromycin following multiple oral doses of Clarithromycin tablets. Also on record: dose 250 mg, dose 500 mg, dose 1000 mg, route oral. The settings on record: in vivo, dosed compound id 21, dosed compound name CLARITHROMYCIN, tissue Plasma.
Data set [2] in a line: (§1) Tmax for Clarithromycin evaluated after a single oral dose of 500 mg Clarithromycin tablets to fed and fasted subjects. The settings on record: human, in vivo, dietary status Fed, dosed compound id 21, dosed compound name CLARITHROMYCIN, regimen Single dose, tissue Plasma.
Data set [3] relates to Homo sapiens. The data set is described as §1. The settings on record: in vivo, po, dietary status Fasting, dosed compound id 21, dosed compound name CLARITHROMYCIN, regimen Single dose, tissue Plasma.
Data set [4] in a line: (§2) Evaluation of pharmacokinetic parameters for Clarithromycin following multiple oral doses of Clarithromycin tablets. Also on record: dose 250 mg, dose 500 mg, dose 1000 mg, route oral. Particulars: human, in vivo, dosed compound id 21, dosed compound name CLARITHROMYCIN, route oral.
Data set [5] deals with Homo sapiens. Described as §2. The arrangement: dose 250 mg, dose 500 mg, dose 1000 mg, route oral. The settings on record: in vivo, po, dosed compound id 21, dosed compound name CLARITHROMYCIN, regimen Every 12h; for Excretion: tissue Urine.

Each structure is given as a SMILES string. Values joined by “and” are separate entries in the source; they are usually repeats but may differ in a detail not shown here. Equal values may be shown once.

As for `CO[C@]1(C)C[C@@H](C)C(=O)[C@H](C)[C@@H](O)[C@](C)(O)[C@@H](C(C)O)OC(=O)[C@H](C)[C@@H](O[C@H]2C[C@@](C)(OC)[C@@H](O)[C@H](C)O2)[C@H](C)[C@H]1O[C@@H]1O[C@H](C)C[C@H](N(C)C)[C@H]1O` (stereo not given in full), the t1/2 in the data set on Homo sapiens [1] (dose 250 mg, regimen Every 12h, route oral) lay within 5 to 6 h; in the data set on Homo sapiens [1] (dose 500 mg, regimen Every 12h, route oral), 7 to 9 h. The time of peak concentration (Tmax) in the data set with Homo sapiens [1] (dose 500 mg, gender male and female, regimen Every 24h, route oral) is 6 h. For the same compound, the Cmax ss in the data set with Homo sapiens [1] (gender male and female, regimen Every 24h) is 800 ng/mL; with Homo sapiens [1] (regimen Every 12h), 600 ng/mL and 1000 ng/mL.

For the compound `CC[C@H]1OC(=O)[C@H](C)[C@@H](O[C@H]2C[C@@](C)(OC)[C@@H](O)[C@H](C)O2)[C@H](C)[C@@H](O[C@@H]2O[C@H](C)C[C@H](N(C)C)[C@H]2O)[C@](C)(OC)C[C@@H](C)C(=O)[C@H](C)[C@@H](O)[C@]1(C)O` [CLARITHROMYCIN], the time of peak concentration (Tmax) in data set [2] was 2.5 h; with Homo sapiens [3], 2 h; in data set [4] (dose 500 mg, gender male and female, regimen Every 24h, tissue Plasma), 5 to 6 h. Moreover, in data set [4] (po, at 250 mg, regimen Every 12h, tissue Urine, read-out: Excretion), the dose excreted was determined as 40%. Further, in data set [4] (dose 500 mg, regimen Every 12h, tissue Plasma), the half-life fell in the range of 5 to 7 h. Moreover, the Excretion with Homo sapiens [5] (at 250 mg) turned out to be 20%; with Homo sapiens [5] (at 500 mg), 30%. The t1/2 in the data set on Homo sapiens [5] (dose 250 mg, tissue Plasma) was 3 to 4 h. In addition, the Cmax ss in the data set on Homo sapiens [5] (gender male and female, tissue Plasma) is 2000 to 4000 ng/mL and 5000 to 10000 ng/mL; in the data set on Homo sapiens [5] (sampling time1 3 days, tissue Plasma), 1000 to 2000 ng/mL and 3000 to 4000 ng/mL.
